“Also recorded” adds a separate entry of the source. Square brackets hold non-standard residues; d marks the D form. Ends that are not written are not given here. Peptide text beside a SMILES is read from it. * marks the point of attachment. Sta = CC(C)C[C@H](N)[C@@H](O)CC(=O)O; Isovaleryl = CC(C)CC(=O)*
Tests used:
PC12 cells = experiment: Inclusion formation of tNhtt-60Q-Venus with or without HSC70bm in PC12 cells; assay type: cell-based, rat; settings: 10 mM 3MA, 10 μM pepstatin A
Procedure: The tNhtt-16Q-EGFP and tNhtt-150Q-EGFP plasmids for transient transfection were prepared by the introduction of the coding sequence into pcDNA3.1 vector (Invitrogen). […] HSC70bm were amplified with primers containing SalI in the forward and XmaI cutting site in the reverse primer from the 60QHsc construct. […] To produce molecules without mRFP tag, all constructs were amplified using primers containing BamHI in the forward and XbaI in the reverse primer, respectively, and introduced to pcDNA3.1 vector.
Rat pheochromocytoma (PC12) cells were grown in the same conditions as Neuro2a cells, except for the serum composition of 5% of fetal bovine and 10% of horse serum (Sigma). […]
In each well, at least 10000 cells were counted and quantified for the presence of the inclusions. […] The screening itself consisted of two scans using Hoechst, FITC (for GFP) and TRITC (for RFP) fluorescence. […] The percentage of the cells with aggregates was then calculated. When the constructs without mRFP were used for transfection, the procedure was same, except the RFP intensity was not measured. […]

150Q-nls Neuro2a cells = experiment: Cell death assay (propidium iodide uptake) in 150Q-nls Neuro2a cells; assay type: cell-based, mouse; settings: after 48 hours of induction
Procedure: (§1) Mouse neuroblastoma (Neuro2a) cells were maintained in Dulbecco's modified Eagle's medium (Sigma) supplemented with 10% heat-inactivated fetal bovine serum (Sigma), 100 U/ml penicillin and 100 μg/ml streptomycin (Invitrogen) at 37° C. in an atmosphere containing 5% CO2 and 95% air. Establishment of stable Neuro2a cell lines with the ecdysone-inducible mammalian expression system (Invitrogen), that express tNhtt-EGFP-16Q (16Q Neuro2a cells), tNhtt-EGFP-150Q (150Q Neuro2a cells) and tNhtt-EGFP-150Q-nls (150Q-nls Neuro2a cells) has been described earlier (T. Nagai et al., supra, H. Doi et al., supra, E. A. Zemskov et al., J Neurochem. 87, 2 (2003)). Neuro2a cells were differentiated with 5mM dbcAMP (N^6, 2′-O-dibutyryladenosine-3′,5′-cyclic monophosphate sodium salt) (Nacalai Tesque) and induced to express tNhtt-polyQ with 2 μM ponasterone A (ponA; Invitrogen) for indicated times. Neuro2a/FRT/TR cell line was generated as described in the protocol for Flp-in/T-Rex system (Invitrogen). […]
(§2) For quantification of cell death, 5 μg/ml each of Hoechst 33342 and propidium iodide (PI) were added to differentiated and induced Neuro2a cells transiently transfected with either of the tested constructs (FIG. 6A). After 10 minutes at 37° C., the number of cells with PI uptake over the total number of cells was calculated by ArrayScan.

[1] = test system: polyQ inclusions in 150Q Neuro2a cells (tNhtt-EGFP-150Q); experiment: ArrayScan quantification of polyQ inclusion formation in inducible 150Q Neuro2a cells; assay type: cell-based, mouse; settings: for decrease of inclusion formation: mRFP-tagged constructs, after 24 hours of differentiation and induction
Procedure: (§3) Mouse neuroblastoma (Neuro2a) cells were maintained in Dulbecco's modified Eagle's medium (Sigma) supplemented with 10% heat-inactivated fetal bovine serum (Sigma), 100 U/ml penicillin and 100 μg/ml streptomycin (Invitrogen) at 37° C. in an atmosphere containing 5% CO2 and 95% air. Establishment of stable Neuro2a cell lines with the ecdysone-inducible mammalian expression system (Invitrogen), that express tNhtt-EGFP-16Q (16Q Neuro2a cells), tNhtt-EGFP-150Q (150Q Neuro2a cells) and tNhtt-EGFP-150Q-nls (150Q-nls Neuro2a cells) has been described earlier (T. Nagai et al., supra, H. Doi et al., supra, E. A. Zemskov et al., J Neurochem. 87, 2 (2003)). Neuro2a cells were differentiated with 5mM dbcAMP (N^6, 2′-O-dibutyryladenosine-3′,5′-cyclic monophosphate sodium salt) (Nacalai Tesque) and induced to express tNhtt-polyQ with 2 μM ponasterone A (ponA; Invitrogen) for indicated times. Neuro2a/FRT/TR cell line was generated as described in the protocol for Flp-in/T-Rex system (Invitrogen). Neuro2a tNhtt-62Q-kikGR cell line was generated by transfecting Neuro2a/FRT/TR cells with the pFRT-HD62-KikGR and pOG44 (Invitrogen) constructs using Lipofectamine 2000 reagent and selected with 200 μg/ml hygromycin. The expression of the pFRT-tNhtt-62Q-KikGR was induced by 18 doxycycline treatment of the cells. For the photo-induced kikGR cleavage, cells were exposed to ˜400 nm wavelength for 5 minutes. Rat pheochromocytoma (PC12) cells were grown in the same conditions as Neuro2a cells, except for the serum composition of 5% of fetal bovine and 10% of horse serum (Sigma). All transient transfections were performed with Lipofectamine 2000 (Invitrogen) according to the manufacturer's instruction.
(§4) For the quantification of the inclusions, cells were grown in 24-well plates for indicated periods, fixed in 4% paraformaldehyde, washed and incubated with Hoechst 33258 at 1/1000 dilution in PBS. Cells were analyzed by ArrayScan® V^TI High Content Screening (HSC) Reader (Cellomics) using Target Activation BioApplication (TABA). TABA analyzes images acquired by a HSC Reader and provides measurements of the intracellular fluorescence intensity and localization on a cell-by-cell basis.
(§5) In each well, at least 10000 cells were counted and quantified for the presence of the inclusions. Nuclei stained with Hoechst 33285 provided the autofocus target and their count gave the exact number of the quantified cells. The screening itself consisted of two scans using Hoechst, FITC (for GFP) and TRITC (for RFP) fluorescence. Firstly, number of inclusions in transfected cells was calculated when fluorescent spots at size of at least 5 pixels (magnification 20× for cytoplasmic and 40× for nuclear aggregates) with average GFP intensity more than 1500 in the RFP background were counted. Secondly, nuclei were defined as the objects of interest and the cells with average intensity more than 50 within 3 pixels from the nucleus were selected for the analysis. The percentage of the cells with aggregates was then calculated. When the constructs without mRFP were used for transfection, the procedure was same, except the RFP intensity was not measured. Scanning was performed with triplicate or quadruplicate in each experimental condition. Data was generated from the quantification of more than 250,000 cells in each experimental set-up.

150Q Neuro2a cells = experiment: Cell death assay (propidium iodide uptake) in 150Q Neuro2a cells; assay type: cell-based, mouse; settings: after 60 hours of induction
Procedure: as §1, §2

[2] = test system: polyQ inclusions in 150Q-nls Neuro2a cells (tNhtt-EGFP-150Q-nls); experiment: ArrayScan quantification of polyQ inclusion formation in inducible 150Q-nls Neuro2a cells; assay type: cell-based, mouse; settings: for decrease of the polyQ inclusion formation: 150Qnls Neuro2a cells, mRFP-tagged constructs, after 48 hours of differentiation and induction
Procedure: as §3, with “Rat pheochromocytoma (PC12) cells were grown in the same conditions as Neuro2a cells, except for the serum composition of 5% of fetal bovine and 10% of horse serum (Sigma). All transient transfections were performed with Lipofectamine 2000 (Invitrogen) according to the manufacturer's instruction.” left out
as §4
as §5, with “Secondly, nuclei were defined as the objects of interest and the cells with average intensity more than 50 within 3 pixels from the nucleus were selected for the analysis.” left out, “Scanning was performed with triplicate or quadruplicate in each experimental condition.” left out

[3] = test system: polyQ inclusions in 150Q Neuro2a cells; experiment: Confocal imaging of tested constructs in 150Q Neuro2a cells; assay type: cell-based, mouse
Procedure: as §3, with “Rat pheochromocytoma (PC12) cells were grown in the same conditions as Neuro2a cells, except for the serum composition of 5% of fetal bovine and 10% of horse serum (Sigma). All transient transfections were performed with Lipofectamine 2000 (Invitrogen) according to the manufacturer's instruction.” left out

tNhtt-16Q = experiment: Western blot of tNhtt-16Q levels in inducible Neuro2a cells; assay type: cell-based, human; settings: inducible 16Q Neuro2a cells, transfection
Procedure: as §1
(§6) Cells were washed twice with ice-cold PBS, scraped, and resuspended in lysis buffer (0.5% Triton X-100 in PBS, 0.5 mM phenylmethylsulfonyl fluoride, Complete protease inhibitor mixture (Roche Applied Sciences)). […] Immunoreactive proteins were detected with enhanced chemiluminescence reagents (Amersham Biosciences). […]

tNhtt-150Q = biological target: T1, tNhtt-150Q (Homo sapiens, UniProt P42858); experiment: Western blot of polyQ aggregation (gel top) in 150Q Neuro2a cells; assay type: cell-based; settings: expression of mRFP-tagged constructs
T1 construct: N-terminal fragment of human huntington exon 1 (tNhtt); expressed in transfected cells
T1 sequence (P42858 with tags, fused parts or gaps): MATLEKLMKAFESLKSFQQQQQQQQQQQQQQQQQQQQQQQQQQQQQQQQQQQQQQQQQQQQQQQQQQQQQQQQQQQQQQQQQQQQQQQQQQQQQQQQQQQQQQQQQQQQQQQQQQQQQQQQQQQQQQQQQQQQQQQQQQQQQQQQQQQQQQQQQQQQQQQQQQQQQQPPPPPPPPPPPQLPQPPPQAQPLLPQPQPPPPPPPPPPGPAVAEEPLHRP
Procedure: as §1, §6

tNhtt-62Q-kikGR protein = biological target: T2, tNhtt-62Q-kikGR protein (Homo sapiens, UniProt P42858, INS38QQQQQQQQQQQQQQQQQQQQQQQQQQQQQQQQQQQQQQQQQ); experiment: Chase experiment in tNhtt-62Q-kikGR Neuro2a cells after photo-cleavage; assay type: cell-based; settings: twelve hours after irradiation
T2 construct: inserting the htt exon 1 with 62Q (HD62); monomeric KikGR (mKikGR; KikGR BAD95669 with A17S, G32R, I37T, N39T, C116T, V126T, N161E, Q167E, H219Y, L222T, P223Y) (C); expressed in transfected cells; host or cells: Neuro2a/FRT/TR cells (Flp-in/T-Rex), doxycycline induced
T2 sequence (P42858 with tags, fused parts or gaps with the stated changes): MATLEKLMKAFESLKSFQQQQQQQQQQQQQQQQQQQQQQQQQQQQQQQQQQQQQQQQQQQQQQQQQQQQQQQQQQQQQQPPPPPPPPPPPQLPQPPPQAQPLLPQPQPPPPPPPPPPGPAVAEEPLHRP
Procedure: as §1, with “(2003)).” for “(2003)). Neuro2a cells were differentiated with 5mM dbcAMP (N^6, 2′-O-dibutyryladenosine-3′,5′-cyclic monophosphate sodium salt) (Nacalai Tesque) and induced to express tNhtt-polyQ with 2 μM ponasterone A (ponA; Invitrogen) for indicated times. Neuro2a/FRT/TR cell line was generated as described in the protocol for Flp-in/T-Rex system (Invitrogen).”
Neuro2a tNhtt-62Q-kikGR cells were induced for 24 hours, and then the 62Q-kikGR was cleaved by 5 minutes irradiation of the cells. Chase phase lasted for 12 hours before the cells were collected and analyzed.
as §6

[4] = biological target: T3, soluble tNhtt-60Q protein (Homo sapiens, UniProt P42858, INS38QQQQQQQQQQQQQQQQQQQQQQQQQQQQQQQQQQQQQQQ); experiment: Chase experiment in 60Q Neuro2a cells (Western blot); assay type: cell-based; settings: after 24 hours chase
T3 construct: N-terminal fragment of human huntington exon 1 (tNhtt) encoding 60 CAG repeats; expressed in transfected cells; host or cells: 60Q Neuro2a cells (mouse neuroblastoma), ponasterone A induced
T3 sequence (P42858 with tags, fused parts or gaps with the stated changes): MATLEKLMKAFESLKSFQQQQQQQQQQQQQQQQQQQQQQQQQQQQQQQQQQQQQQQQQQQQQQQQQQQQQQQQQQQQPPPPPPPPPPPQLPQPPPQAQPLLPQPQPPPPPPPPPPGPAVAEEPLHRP
Procedure: (§7) To determine whether tNhtt-polyQ degrades faster in the presence of RHQ, chase experiments were performed. Neuro2a were first induced to express tNhtt-polyQ for 20 hrs in case of 60Q and 12 hrs in case of 150Q cells and then transfected with the tested constructs. Four hours later, ponaA was removed; cells were washed with PBS and incubated in the medium containing dbcAMP (for differentiation) for 24 hrs. Cells were lysed and the levels of tNhtt-polyQ were analyzed by Western blotting.
(§8) Cells were washed twice with ice-cold PBS, scraped, and resuspended in lysis buffer (0.5% Triton X-100 in PBS, 0.5 mM phenylmethylsulfonyl fluoride, Complete protease inhibitor mixture (Roche Applied Sciences)). After incubating on ice for 30 minutes lysates were briefly sonicated. Equal amounts of protein were boiled for 5 minutes in 2× SDS-sample buffer, separated by 5-12% gradient SDS-PAGE and electrophoretically transferred to a polyvinylidene difluoride (PVDF) membrane (Millipore). The membranes were blocked in 5% skim milk in 0.05% Tween 20/Tris-buffered saline (TBST) and incubated with primary antibody (dilutions in accordance to manufacturer's recommendations) overnight at […]. […] Immunoreactive proteins were detected with enhanced chemiluminescence reagents (Amersham Biosciences). […]

tNhtt-150Q polyQ protein = biological target: T4, tNhtt-150Q polyQ protein (Homo sapiens, UniProt P42858); experiment: Chase experiment in 150Q Neuro2a cells (Western blot); assay type: cell-based
T4 construct: N-terminal fragment of human huntington exon 1 (tNhtt); expressed in transfected cells
T4 sequence (P42858 with tags, fused parts or gaps): as the sequence (P42858 with tags, fused parts or gaps) above
Procedure: as §7, §8

Row | Molecule | influence of inhibitor on the effect of HSC70bm on 60Q aggregation (PC12 cells) | localization relative to polyQ inclusions [3] | levels of tNhtt-16Q (tNhtt-16Q) | decrease of inclusion formation [1] [%] | polyQ aggregation (gel top) (tNhtt-150Q) | decrease of the polyQ inclusion formation [2] [%] | further results
1 | Cn1cnc(N)c2ncnc1-2 [3MA, 3-methyladenine] | did not |  |  |  |  |  | 
2 | CC(C)CC(=O)N[C@H](C(=O)N[C@H](C(=O)N[C@@H](CC(C)C)[C@@H](O)CC(=O)N[C@@H](C)C(=O)N[C@@H](CC(C)C)[C@@H](O)CC(=O)O)C(C)C)C(C)C [pepstatin A] (Isovaleryl-VV[Sta]A[Sta]-OH) | alleviated the effect of HSC70bm |  |  |  |  |  | 
3 | (QBP1)2 (MSNWKWWPGIFDSNWKWWPGIFD) [reference compound] |  |  |  |  |  |  | decrease of the percentage of PI-positive cells (150Q-nls Neuro2a cells): 17.7%; decrease of aggregation compared to control counterparts (S and HS) ([1]; constructs without mRFP, induced and differentiated for 24 hours): 32.6%; decrease of the percentage of PI-positive cells (150Q Neuro2a cells): 12.3%; reduction of aggregation compared to control counterparts (S and HS) ([2]; 150Q-nls Neuro2a cells, constructs without mRFP, 48 hours after induction): 24.7%
4 | mRFP-(QBP1)2 (MSNWKWWPGIFDSNWKWWPGIFD; also: fused to mRFP) [RQ, monomeric red fluorescent protein fused to (QBP1)2, reference compound] |  | co-localized with the polyQ inclusions | not affected | 38 | markedly decreased | 21.5 | 
5 | mRFP-HSC70bm-(QBP1)2 (MARVKKDQAEPLHRKFERQPPGSNWKWWPGIFDSNWKWWPGIFD; also: fused to mRFP) [RHQ] |  | co-localized with the polyQ inclusions | not affected | 56.5 | much stronger effect; also recorded: markedly decreased | 48.5 | decrease of full length (constitutively expressed) tNhtt-62Q-kikGR as compared to RQ (tNhtt-62Q-kikGR protein): 24%; decrease of levels of the cleaved form of tNhtt-62Q-kikGR protein as compared to RQ (tNhtt-62Q-kikGR protein): 45.6%; effect on polyQ aggregation after silencing of HSC70 and/or Lamp2a with shRNA ([1]; any knock-down combination): inhibited; enhancement of degradation of soluble tNhtt-60Q protein as compared to R [4]: 43%; enhancement of degradation of soluble tNhtt-60Q protein as compared with RQ [4]: 37.4%; clearance of aggregated and soluble polyQ (tNhtt-150Q polyQ protein; autophagy activation by serum withdrawal): almost complete clearance; degradation of the polyQ protein (tNhtt-150Q polyQ protein; chase 24 hours): enhanced degradation
